Results taken from patent publication EP0850950A1, “PEPTIDE DERIVATIVES” (DAIICHI PHARMACEUTICAL CO., LTD., priority 1995, dated 1998).

Tested on: Mice
Test: analgesic activity by pressure stimulation method (tail base)
Format: in vivo
Conditions: percent of maximum possible effect, maximum stimulating pressure 100 mmHg; for MPE(%) 1 mg/kg s.c. (%): 1 mg/kg subcutaneous administration (skin in the backs); for MPE(%) 10 mg/kg p.o.(%): 10 mg/kg oral administration
Experimental: The analgesic activities of the peptide derivatives of the present invention were evaluated by pressure stimulation method. Mice were subjected to pressure stimulation at the bases of their tails at a rate of 10 mmHg/second. […] For the experiments, mice that were preliminarily determined to respond to a pressure of 40-50 mmHg were used. The maximum stimulating pressure was 100 mmHg. Analgesic activity was calculated as percent of maximum possible effect (% of MPE) according to the following equation: % of MPE =(Pt - Po)/(Pc - Po)× 100 [formula] wherein Po is the pain reaction threshold before the administration of a drug; Pt is the pain reaction threshold "t" minutes after the administration of the drug; and Pc is the maximum stimulating pressure. The results of analgesic activity obtained from subcutaneous administration (skin in the backs) and oral administration are shown in Table 1.

Row | SMILES | MPE(%) 1 mg/kg s.c. (%) | MPE(%) 10 mg/kg p.o.(%)
1 | Cc1cc(O)cc(C)c1C[C@H](NC(=N)N)C(=O)N[C@H](CCCNC(=N)N)C(=O)N[C@@H](Cc1ccccc1)C(=O)N(C)CCC(=O)O [Example 2, H2NC(NH)-DMT-D-Arg-Phe-MeβAla-OH·diacetate] | 93.47% | 22.78%
2 | CN(CCC(=O)O)C(=O)[C@H](Cc1ccccc1)NC(=O)[C@@H](CCCNC(=N)N)NC(=O)[C@H](Cc1ccc(O)c(O)c1)NC(=N)N [Example 4, H2NC(NH)-DOPA-D-Arg-Phe-MeβAla-OH·diacetate] | 70.85% | 18.11%
3 | CN(CCC(=O)O)C(=O)[C@H](Cc1ccccc1)NC(=O)[C@@H](CCNC(=N)N)NC(=O)[C@H](Cc1ccc(O)cc1)NC(=N)N [Example 10, H2NC(NH)-Tyr-(R)-AGBA-Phe-MeβAla-OH·diacetate] | 42.78% | 10.62%
4 | CC(=N)NCCC[C@@H](NC(=O)[C@H](Cc1ccc(O)cc1)NC(=N)N)C(=O)N[C@@H](Cc1ccccc1)C(=O)N(C)CCC(=O)O [Example 17, H2NC(NH)-Tyr-(R)-IEPE-Phe-MeβAla-OH·diacetate] | 100% | 88.34%
5 | CC(=N)N[C@@H](Cc1ccc(O)cc1)C(=O)N[C@H](CCCCN)C(=O)N[C@@H](Cc1ccccc1)C(=O)N(C)CCC(=O)O [Example 19, H3C-C(NH)-Tyr-D-Lys-Phe-MeβAla-OH·diacetate] | 87.11% | 82.29%
6 | CN(CCC(=O)O)C(=O)[C@H](Cc1ccc(O)cc1)NC(=O)[C@@H](CCCNC(=N)N)NC(=O)[C@H](Cc1ccc(O)cc1)NC(=N)N [Example 25, H2NC(NH)-Tyr-D-Arg-Tyr-MeβAla-OH·diacetate] | 22.55% | 10.96%
7 | CN(CCC(=O)O)C(=O)[C@H](CCc1ccccc1)NC(=O)[C@@H](CCCNC(=N)N)NC(=O)[C@H](Cc1ccc(O)cc1)NC(=N)N [Example 26, N-H2NC(NH)-Tyr-D-Arg-APBA-MeβAla-OH·diacetate] | 32.83% | 14.44%
8 | CN(CCC(=O)O)C(=O)[C@H](CC1CCCCC1)NC(=O)[C@@H](CCCNC(=N)N)NC(=O)[C@H](Cc1ccc(O)cc1)NC(=N)N [Example 27, H2NC(NH)-Tyr-D-Arg-Cha-MeβAla-OH·diacetate] | 52.14% | 33.15%
9 | CC(=N)N[C@@H](Cc1ccc(O)cc1)C(=O)N[C@H](CC[S+](C)[O-])C(=O)N[C@@H](Cc1ccccc1)C(=O)N(C)CCC(=O)O (stereo partly drawn) [Example 31, H3C-C(NH)-Tyr-D-AMSB-Phe-MeβAla-OH·acetate] | 100% | 96.18%
10 | CC(=N)NC[C@@H](NC(=O)[C@H](Cc1ccc(O)cc1)NC(=N)N)C(=O)N[C@@H](Cc1ccccc1)C(=O)N(C)CCC(=O)O [Example 32, H2NC(NH)-Tyr-D-IEPR-Phe-MeβAla-OH·diacetate] | 66.61% | 52.72%
